≈ marks a conversion by molar mass, not a printed value. Where two headings read alike, the source gives them in different places.
Columns and labels:
[1] = molecular target: Human neutrophil elastase (Homo sapiens (Human), UniProt P08246); assay: Human Neutrophil Elastase Assay; type: biochemical; conditions: human neutrophil elastase, substrate MeOSuc-Ala-Ala-Pro-Val-AMC 250 μM, pH 7.5; read-out: IC50
[2] = molecular target: neutrophil elastase in human plasma (Homo sapiens (Human), UniProt P08246); assay: Neutrophil elastase inhibitory activity in human plasma (zymosan-stimulated blood); type: biochemical; conditions: neutrophil elastase enriched human plasma from zymosan-stimulated blood; read-out: EC50
[3] = Metabolic stability with human liver microsomes; type: in vitro ADME; conditions: for half-life at 1 μM: pH 7.6
[4] = Drug transport across human Caco-2 cells; type: in vitro ADME; conditions: human; for Papp A→B at 10 µM / Papp B→A at 10 µM: Caco-2, pH 7.2, Caco-2 monolayers, pH 7.2, 37° C.; for Papp A→B at 10 µM: apical-to-basal, read-out: PEAB; for Papp B→A at 10 µM: basal-to-apical, read-out: PEBA; for efflux ratio at 10 μM: Caco-2, pH 7.2, PEBA/PEAB, Caco-2
Aqueous solubility = type: physicochemical; conditions: McIlvaine buffer pH 6.8, 2.5% DMSO, 24 h shaking; for solubility at 24 h: McIlvaine buffer pH 6.8 with 2.5% DMSO, pH 6.8, aqueous buffer, kinetic from dmso stock
Procedure: Assay for Determination of Aqueous Solubility […] After 24 h of shaking, the solutions or suspensions are filtered and analyzed by LC-UV. The amount dissolved in buffer is compared to the amount dissolved in the acetonitrile/water (1/1) solution.

Chain of Human neutrophil elastase (P08246 30-247): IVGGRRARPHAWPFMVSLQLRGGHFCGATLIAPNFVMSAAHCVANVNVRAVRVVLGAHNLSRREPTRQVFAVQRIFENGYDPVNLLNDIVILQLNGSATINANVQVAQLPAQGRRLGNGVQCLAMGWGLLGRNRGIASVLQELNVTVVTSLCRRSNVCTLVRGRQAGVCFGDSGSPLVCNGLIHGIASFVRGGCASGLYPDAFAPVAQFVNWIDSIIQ
Chain of neutrophil elastase in human plasma (P08246 30-247): as above

SMILES | IC50 [1] | EC50 [2] | half-life at 1 μM ([3]; human, microsomes) | Papp A→B at 10 µM [4] | Papp B→A at 10 µM [4] | efflux ratio at 10 μM [4] | solubility at 24 h (Aqueous solubility) | half-life at 1 μM ([3]; pooled human liver microsomes, 1 mg/ml protein, 1 μM test compound, 37° C., NADPH, read-out: t1/2 INVITRO) | t1/2 INVITRO ([3]; pooled human liver microsomes, 1 mg/ml protein, 1 μM test compound, 37° C., NADPH) | Aqueous solubility (Aqueous solubility)
CN1C(=O)N(c2cccc(C(F)(F)F)c2)C2=C(C(=O)CC2)C1c1ccc(C#N)cn1 (stereo not drawn) [Example 26.1] | 26.8 nM | 13 nM | > 2.17 h | 67.7 ×10⁻⁶ cm/s | 64.2 ×10⁻⁶ cm/s | 0.9 | 41 µg/mL (≈ 99.4 µM) |  |  | 
CN(CCO)C(=O)CN1C(=O)N(c2cccc(C(F)(F)F)c2)C2=C(C(=O)CC2)C1c1ccc(C#N)cc1S(C)(=O)=O (stereo not drawn) [Example 21, 2-(4-(4-Cyano-2-(methylsulfonyl)phenyl)-2,5-dioxo-1-(3-(trifluoromethyl)phenyl)-6,7-dihydro-1H-cyclopenta[d]pyrimidin-3(2H,4H,5H)-yl)-N-(2-hydroxyethyl)-N-methyl-acetamide] | < 1 nM | 1 nM | > 2.17 h |  |  |  | 87 µg/mL (≈ 147 µM) |  |  | 
N#CCN1C(=O)N(c2cccc(C(F)(F)F)c2)C2=C(C(=O)CC2)C1c1ccc(C#N)cc1 (stereo not drawn) [Example 22, 4-(3-(Cyanomethyl)-2,5-dioxo-1-(3-(trifluoromethyl)phenyl)-2,3,4,5,6,7-hexahydro-1H-cyclopenta[d]pyrimidin-4-yl)benzonitrile] | 25.6 nM | 23 nM | > 2.17 h | 36.5 ×10⁻⁶ cm/s | 54.5 ×10⁻⁶ cm/s | 1.5 | 13 µg/mL (≈ 29.8 µM) |  |  | 
CCN1C(=O)N(c2cccc(C(F)(F)F)c2)C2=C(C(=O)CC2)C1c1ccc(C#N)cc1S(C)(=O)=O (stereo not drawn) [Example 24, 4-(3-Ethyl-2,5-dioxo-1-(3-(trifluoromethyl)phenyl)-2,3,4,5,6,7-hexahydro-1H-cyclopenta[d]pyrimidin-4-yl)-3-(methylsulfonyl)benzonitrile] | 1.6 nM | 2 nM | > 2.17 h | 62.5 ×10⁻⁶ cm/s | 85.6 ×10⁻⁶ cm/s | 1.4 |  |  |  | 
CS(=O)(=O)c1cc(C#N)ccc1C1C2=C(CCC2=O)N(c2cccc(C(F)(F)F)c2)C(=O)N1CC(=O)O (stereo not drawn) [Example 19, 2-(4-(4-Cyano-2-(methylsulfonyl)phenyl)-2,5-dioxo-1-(3-(trifluoromethyl)phenyl)-6,7-dihydro-1H-cyclopenta[d]pyrimidin-3(2H,4H,5H)-yl)acetic acid] | 1.3 nM | 2 nM | > 2.17 h |  |  |  | 89 µg/mL (≈ 167 µM) |  |  | 
CN1C(=O)N(c2ccnc(C(F)(F)F)c2)C2=C(C(=O)CC2)C1c1ccc(C#N)cc1S(C)(=O)=O (stereo not drawn) [Example 29, 4-(3-Methyl-2,5-dioxo-1-(2-(trifluoromethyl)pyridin-4-yl)-2,3,4,5,6,7-hexahydro-1H-cyclopenta[d]pyrimidin-4-yl)-3-(methylsulfonyl)benzonitrile] |  |  |  | 11.8 ×10⁻⁶ cm/s | 66.2 ×10⁻⁶ cm/s |  | 79 µg/mL (≈ 161 µM) | > 2.17 h |  | 
CCS(=O)(=O)N1C(=O)N(c2cccc(C(F)(F)F)c2)C2=C(C(=O)CC2)C1c1ccc(C#N)cc1 (stereo not drawn) [Example 35, 4-(3-(Ethylsulfonyl)-2,5-dioxo-1-(3-(trifluoromethyl)phenyl)-2,3,4,5,6,7-hexahydro-1H-cyclopenta[d]pyrimidin-4-yl)benzonitrile] | 2.7 nM | 7 nM | > 2.17 h | 56.9 ×10⁻⁶ cm/s | 73.8 ×10⁻⁶ cm/s | 1.3 |  |  |  | 
CS(=O)(=O)c1cc(C#N)ccc1[C@H]1NC(=O)N(c2cccc(C(F)F)c2)C2=C1C(=O)CC2 [Example 15.4A, (S)-4-(1-(3-(Difluoromethyl)phenyl)-2,5-dioxo-2,3,4,5,6,7-hexahydro-1H-cyclopenta[d]pyrimidin-4-yl)-3-(methylsulfonyl)benzonitrile] | 2.9 nM | 2 nM | > 2.17 h | 3 ×10⁻⁶ cm/s | 46 ×10⁻⁶ cm/s | 15 | 69 µg/mL (≈ 151 µM) |  |  | 
CCS(=O)(=O)c1cc(C#N)ccc1[C@H]1NC(=O)N(c2cccc(C(F)(F)F)c2)C2=C1C(=O)CC2 [Example 14A, (S)-4-(2,5-Dioxo-1-(3-(trifluoromethyl)phenyl)-2,3,4,5,6,7-hexahydro-1H-cyclopenta[d]pyrimidin-4-yl)-3-(ethylsulfonyl)benzonitrile] | 1.2 nM | 1 nM | > 2.17 h | 10.3 ×10⁻⁶ cm/s | 94.8 ×10⁻⁶ cm/s | 9.2 | 62 µg/mL (≈ 127 µM) |  |  | 
CN1C(=O)N(c2cccc(C(F)F)c2)C2=C(C(=O)CC2)[C@H]1c1ccc(C#N)cc1 [Example 26A, (R)-4-(1-(3-(Difluoromethyl)phenyl)-3-methyl-2,5-dioxo-2,3,4,5,6,7-hexahydro-1H-cyclopenta[d]pyrimidin-4-yl)benzonitrile] | 2.4 nM | 2 nM | > 2.17 h | 72 ×10⁻⁶ cm/s | 76 ×10⁻⁶ cm/s | 1.1 | 41 µg/mL (≈ 104 µM) |  |  | 
CCOC(=O)N1C(=O)N(c2cccc(C(F)(F)F)c2)C2=C(C(=O)CC2)C1c1ccc(C#N)cc1 (stereo not drawn) [Example 31, Ethyl 4-(4-Cyanophenyl)-2,5-dioxo-1-(3-(trifluoromethyl)phenyl)-4,5,6,7-tetrahydro-1H-cyclopenta[d]pyrimidine-3(2H)-carboxylate] | 4.2 nM | 14 nM | > 2.17 h | 80.9 ×10⁻⁶ cm/s | 69.5 ×10⁻⁶ cm/s | 0.9 |  |  |  | 
CC(C)(O)CNC(=O)N1C(=O)N(c2ccnc(C(F)(F)F)c2)C2=C(C(=O)CC2)C1c1ccc(C#N)cc1 (stereo not drawn) [Example 55, 4-(4-Cyanophenyl)-N-(2-hydroxy-2-methylpropyl)-2,5-dioxo-1-(2-(trifluoromethyl)-pyridin-4-yl)-4,5,6,7-tetrahydro-1H-cyclopenta[d]pyrimidine-3(2H)-carboxamide] | 6.1 nM | 3 nM | > 2.17 h |  |  |  |  |  |  | 

More lines, now with the values ahead:

IC50 [1] | EC50 [2] | half-life at 1 μM ([3]; human, microsomes) | Papp A→B at 10 µM [4] | Papp B→A at 10 µM [4] | efflux ratio at 10 μM [4] | solubility at 24 h (Aqueous solubility) | half-life at 1 μM ([3]; pooled human liver microsomes, 1 mg/ml protein, 1 μM test compound, 37° C., NADPH, read-out: t1/2 INVITRO) | t1/2 INVITRO ([3]; pooled human liver microsomes, 1 mg/ml protein, 1 μM test compound, 37° C., NADPH) | Aqueous solubility (Aqueous solubility) | SMILES
< 1 nM | < 1 nM | > 2.17 h | 7.74 ×10⁻⁶ cm/s | 85.5 ×10⁻⁶ cm/s |  | 19 µg/mL (≈ 34 µM) |  |  |  | CS(=O)(=O)c1cc(C#N)ccc1[C@@H]1C2=C(CCC2=O)N(c2cccc(C(F)(F)F)c2)C(=O)N1C(=O)NC1CC1 [Example 47.4]
< 1 nM | 4 nM | > 2.17 h | 83.1 ×10⁻⁶ cm/s | 64.8 ×10⁻⁶ cm/s | 0.8 |  |  |  |  | CNC(=O)N1C(=O)N(c2cccc(C(F)(F)F)c2)C2=C(C(=O)CC2)[C@H]1c1ccc(C#N)cc1F [Example 49A, (S)-4-(4-Cyano-2-fluorophenyl)-N-methyl-2,5-dioxo-1-(3-(trifluoromethyl)phenyl)-4,5,6,7-tetrahydro-1H-cyclopenta[d]pyrimidine-3(2H)-carboxamide]
< 1 nM | 1 nM | > 2.17 h | 19.2 ×10⁻⁶ cm/s | 86.7 ×10⁻⁶ cm/s |  | 16 µg/mL (≈ 28.5 µM) |  |  |  | CC(C)NC(=O)N1C(=O)N(c2cccc(C(F)(F)F)c2)C2=C(C(=O)CC2)[C@H]1c1ccc(C#N)cc1S(C)(=O)=O [Example 47.5]
1.1 nM | < 1 nM | > 2.17 h | 57.1 ×10⁻⁶ cm/s | 58.3 ×10⁻⁶ cm/s | 1 | 41 µg/mL (≈ 93.9 µM) |  |  |  | CNC(=O)N1C(=O)N(c2cccc(C(F)F)c2)C2=C(C(=O)CC2)C1c1ccc(C#N)cc1 (stereo not drawn) [Example 52.1]
 |  | > 2.17 h | 38.1 ×10⁻⁶ cm/s | 77.2 ×10⁻⁶ cm/s | 2 | 28 µg/mL (≈ 53.4 µM) |  |  |  | N#Cc1ccc([C@@H]2C3=C(CCC3=O)N(c3cccc(C(F)(F)F)c3)C(=O)N2C(=O)N[C@H]2CCC[C@@H]2O)cc1 [Example 45.4]
< 1 nM | < 1 nM | > 2.17 h |  |  |  | 91 µg/mL (≈ 195 µM) |  |  |  | N#Cc1ccc(C2C3=C(CCC3=O)N(c3cccc(C(F)F)c3)C(=O)N2C(=O)NCCO)cc1 (stereo not drawn) [Example 52.3]
 |  | > 2.17 h | 36.2 ×10⁻⁶ cm/s | 86 ×10⁻⁶ cm/s | 2.4 | 20 µg/mL (≈ 38.1 µM) |  |  |  | N#Cc1ccc(C2C3=C(CCC3=O)N(c3cccc(C(F)(F)F)c3)C(=O)N2C(=O)N[C@@H]2CCC[C@H]2O)cc1 (stereo partly drawn) [Example 42.3]
3.3 nM | < 1 nM |  |  |  |  |  |  | >2.17 h | 44 µg/mL | CCNC(=O)N1C(=O)N(c2ccnc(C(F)(F)F)c2)C2=C(C(=O)CC2)C1c1ccc(C#N)cc1 (racemic) [Example 54.2]
< 1 nM | 1 nM | > 2.17 h | 4.45 ×10⁻⁶ cm/s | 62.7 ×10⁻⁶ cm/s | 14.1 | 70 µg/mL (≈ 142 µM) |  |  |  | CC(C)(O)CNC(=O)N1C(=O)N(c2cccc(C(F)F)c2)C2=C(C(=O)CC2)C1c1ccc(C#N)cc1 (stereo not drawn) [Example 52.5]
9.3 nM | 17 nM |  | 84.9 ×10⁻⁶ cm/s | 99.8 ×10⁻⁶ cm/s | 1.2 |  |  |  |  | CS(=O)(=O)N1C(=O)N(c2cccc(C(F)(F)F)c2)C2=C(C(=O)CC2)C1c1ccc(C#N)cc1Cl (stereo not drawn) [Example 37.2]

Reference: patent US9290459B1, “Substituted bicyclic dihydropyrimidinones and their use as inhibitors of neutrophil elastase activity” (Boehringer Ingelheim International GmbH, priority 2013, dated 2016)
